This assay addresses T1, Gag-Pol polyprotein [588-1027]/[588-1147] (Human immunodeficiency virus 1, UniProt P04585).
T1 construct: 588-1027; 588-1147
Description: HIV-1 RT Assay.

pIC50: −log10 of the molar value. A value given as a limit tells only on which side of the number the result lay.

As for `O=C1c2ncccc2C2(c3ccccc3)SCCN12` (stereo not drawn) [2-phenyl-3-thia-6,9-diazatricyclo[6.4.0.0^{2,6}]dodeca-1(12),8,10-trien-7-one], the pIC50 is under 4.00. Same read-out and setting: to `O=C1c2cnccc2C2(c3ccccc3)SCCN12` (stereo not drawn) [2-phenyl-3-thia-6,10-diazatricyclo[6.4.0.0^{2,6}]dodeca-1(12),8,10-trien-7-one] belongs under 4.00. In turn, `O=C1c2ccccc2C2(c3ccccc3)Sc3ccccc3N12` (stereo not drawn) [9-phenyl-8-thia-1-azatetracyclo[7.7.0.0^{2,7}.0^{10,15}]hexadeca-2,4,6,10,12,14-hexaen-16-one] had a pIC50 of 4.40. Turning to `O=C1c2ccccc2C2(c3ccc[nH]3)SCCN12` (stereo not drawn) [9b-(1H-pyrrol-2-yl)-2H,3H,5H,9bH-isoindolo[1,2-b][1,3]thiazol-5-one], the pIC50 (pH 7.7, 37 °C) was under 4.00.

For `COc1ccc(C23SCCN2C(=O)c2ccccc23)cc1` (stereo not drawn) [9b-(4-methoxyphenyl)-2H,3H,5H,9bH-isoindolo[1,2-b][1,3]thiazol-5-one], for the setting “pH 7.7, 37 °C”, the pIC50 is under 4.52. In turn, `O=C1c2ccccc2C2(c3ccncc3)SCCN12` (stereo not drawn) [9b-(pyridin-4-yl)-2H,3H,5H,9bH-isoindolo[1,2-b][1,3]thiazol-5-one] had a pIC50 of under 4.52. Same read-out and setting: to `O=C1c2ccccc2C2(c3ccccc3)NCCN12` (stereo not drawn) [9b-phenyl-1H,2H,3H,5H,9bH-imidazolidino[2,1-a]isoindol-5-one] belongs under 4.00; to `O=C1c2ccccc2C2(c3ccccc3)N1CCS2(=O)=O` (stereo not drawn) [9b-phenyl-2H,3H,5H,9bH-1,4000000-isoindolo[1,2-b][1,3]thiazole-1,1,5-trione], under 5.00. Same read-out and setting: the value for `O=C1c2ccccc2C2(c3ccccc3)NCCCN12` (stereo not drawn) [10b-phenyl-1H,2H,3H,4H,6H,10bH-pyrimido[2,1-a]isoindol-6-one] was under 5.00. On the same count and under the same terms, to `O=C1c2c(ccc3ccccc23)C2(c3ccccc3)SCCN12` (stereo not drawn) [11-phenyl-12-thia-15-azatetracyclo[8.6.0.0^{2,7}.0^{11,15}]hexadeca-1,3,5,7,9-pentaen-16-one] belongs under 4.00; to `C[C@@H]1CN2C(=O)c3ccccc3[C@@]2(c2ccccc2)O1` [(2R,9bR)-2-methyl-9b-phenyl-2H,3H,5H,9bH-isoindolo[1,2-b][1,3]oxazol-5-one], 4.42. `C[C@H]1CN2C(=O)c3ccccc3[C@@]2(c2ccccc2)O1` [(2S,9bR)-2-methyl-9b-phenyl-2H,3H,5H,9bH-isoindolo[1,2-b][1,3]oxazol-5-one] showed a pIC50 of under 4.00. Still for that read-out and setting: to `O=C(O)[C@H]1CSC2(c3ccccc3)c3ccccc3C(=O)N12` (stereo partly drawn) [(3S)-5-oxo-9b-phenyl-2H,3H,5H,9bH-isoindolo[1,2-b][1,3]thiazole-3-carboxylic acid] belongs under 4.00.

The pIC50 is the negative decadic logarithm of the IC50, by convention in mol/L. High values mean a low IC50, low ones a high IC50.
